Data taken from PMC4166525 (Organic letters, 2013).

Target: T1, EgtB (Mycolicibacterium smegmatis, UniProt A0R5N0)
T1 sequence (A0R5N0 1-428): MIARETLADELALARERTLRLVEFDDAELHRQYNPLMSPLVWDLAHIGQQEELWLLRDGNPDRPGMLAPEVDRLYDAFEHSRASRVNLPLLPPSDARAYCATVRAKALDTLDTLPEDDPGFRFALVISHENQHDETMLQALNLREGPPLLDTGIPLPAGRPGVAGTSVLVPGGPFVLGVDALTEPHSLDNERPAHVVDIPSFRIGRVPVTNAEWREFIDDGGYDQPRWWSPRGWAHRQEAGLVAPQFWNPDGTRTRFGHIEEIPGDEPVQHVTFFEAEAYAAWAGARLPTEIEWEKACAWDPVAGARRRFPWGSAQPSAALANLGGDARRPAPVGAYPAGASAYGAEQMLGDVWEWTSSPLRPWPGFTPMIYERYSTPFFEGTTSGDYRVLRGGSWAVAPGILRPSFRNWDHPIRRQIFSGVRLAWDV
Experiment: 1H-NMR assay of product […]
Type: biochemical
Conditions: co-substrate γ-Glu-Cys

SMILES: C[N+](C)(C)[C@@H](Cc1cnc[nH]1)C(=O)[O-] [compound 2, hercynine]
- 1H-NMR assay of product 3: Native EgtB reaction in ergothioneine biosynthesis
